Reference: US20040121029A1, “Antiulcer herbal composition(s)” (Council of Scientific & Industrial Research, priority 2002, published 2004)
Marks after values point to notes of the source that are not given here.

Key:
[1] = test system: pylorus ligation (PL) - induced gastric ulcers; test: Pylorus ligation (PL) - induced ulcers in rats; assay type: in vivo; details: dose 50
Experimental: 4. Pylorus ligated induced ulcers: Animals were anaesthetized using pentobarbitione (35 mg/kg, i.p.), the abdomen was opened and pylorus ligation was done without causing any damage to its blood supply. The stomach was replaced carefully and the abdomen wall was closed in 2 layers with interrupted sutures. The animals were deprived of water during postoperative period. After 4 hours stomach were dissected out and contents were collected and ulcer index was calculated.

[2] = test system: cold restraint stress (CRS) - induced gastric ulcers; test: Cold restraint stress (CRS) - induced ulcers in rats; assay type: in vivo; details: dose 50
Experimental: 3. Cold restraint stress—induced ulcers: Rats were strapped on a wooden plank and kept them at 4-6° C. for 2 hours. The animals were then sacrificed by cervical dislocation and ulcers were scored on the dissected stomach.

CNC(=C[N+](=O)[O-])NCCSCc1ccc(CN(C)C)o1 [Ranitidine]
PL - induced ulcers % Curative Ratio [1]: 64.82%
PL - induced ulcers Ulcer Index ([1]; mean ± SEM, six rats): 5.1 ± 1.3^b
CRS - induced ulcers % Curative Ratio [2]: 79.68%
CRS - induced ulcers Ulcer Index ([2]; mean ± SEM, six rats): 5.2 ± 1.1^c
